Test results from patent publication US6518243B1, “Desleucyl glycopeptide antibiotics and methods of making same” (Trustees of Princeton University, priority 1999, dated 2003).

What was measured:
S. Aureus ATCC 33591 = test: MIC determination in BHI media, OD600; format: cell-based; details: BHI + 0.1% casamino acids, 18 hours at 37° C., ≧90% OD600 inhibition
Procedure: (§1) Logarithmically growing cells were diluted to approximately 5×10^5 CFU/ml and subjected to test compounds solubilized and serially diluted in DMSO. […] After 18 hours at 37° C., the OD600 was determined by reading the ninety-six well microtiter plates on a microplate reader. For a given concentration, an MIC determination was made if: […]

E. faecium ATCC 49624 = test: MIC determination in BHI media, OD600; format: cell-based; details: BHI + 0.1% casamino acids, 18 hours at 37° C., ≧90% OD600 inhibition
Procedure: as §1

E. faecalis ATCC 29212 = test: MIC determination in BHI media, OD600; format: cell-based; details: BHI + 0.1% casamino acids, 18 hours at 37° C., ≧90% OD600 inhibition
Procedure: as §1

S aureus ATCC 29213 = test: MIC determination in BHI media, OD600; format: cell-based; details: BHI + 0.1% casamino acids, 18 hours at 37° C., ≧90% OD600 inhibition
Procedure: as §1

[1] = system: S. epidermidis (ATCC 12228); test: Zone of inhibition screen, 96 well agar array format; format: cell-based; set-up: scale not given here
Outline: (§2)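 Read-out is antibacterial activity on agar laid out as a 96-well array; every compound went through all strains of the panel.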

E. faecium CL 4931 = test: MIC determination in BHI media, OD600; format: cell-based; details: BHI + 0.1% casamino acids, 18 hours at 37° C., ≧90% OD600 inhibition
Procedure: as §1

E. faceium (ATCC 49624) = test: Zone of inhibition screen, 96 well agar array format;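 note: score 3 means fourfold and score 4 sixteenfold the reference zone size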; format: cell-based, E. faecium; details: zone of inhibition relative to 1 mg/ml stock solution of p-chlorobiphenylvancomycin
Outline: as §2

E. faecalis (CL 4877) = test: as above; format: cell-based; set-up: scale not given here
Outline: as §2

S. aureus (ATCC 29213) = test: as above; format: cell-based; set-up: scale not given here
Outline: as §2

[2] = zone of inhibition relative to 1 mg/ml stock solution of p-chlorobiphenylvancomycin
[3] = zone of inhibition relative to 1 mg/ml p-chlorobiphenylvancomycin

Row | MIC S. aureus ATCC 33591 (S. Aureus ATCC 33591) [µg/mL] | MIC E. faecium ATCC 49624 (E. faecium ATCC 49624) [µg/mL] | MIC E. faecalis ATCC 29212 (E. faecalis ATCC 29212) [µg/mL] | MIC S. aureus ATCC 29213 (S aureus ATCC 29213) [µg/mL] | MIC E. faecium CL 4931 (E. faecium CL 4931) [µg/mL] | SMILES | zone score, S. epidermidis ATCC 12228 [1, 2] | zone score, E. faecium ATCC 49624 (E. faceium (ATCC 49624)) | zone score, E. faecalis CL 4877 (E. faecalis (CL 4877); [2]) | zone score, S. aureus ATCC 29213 (S. aureus (ATCC 29213); [3]) | zone score, E. faecalis CL 4877 (E. faecalis (CL 4877); [3]) | zone score, S. epidermidis ATCC 12228 [1, 3] | zone score, S. aureus ATCC 29213 (S. aureus (ATCC 29213); [2])
1 | 0.25 | 0.12 | 0.25 | 0.25 |  | CC(C)C(N)C(=O)NC1C(=O)NC(CC(N)=O)C(=O)NC2C(=O)NC3C(=O)NC(C(=O)NC(C(=O)O)c4cc(O)cc(O)c4-c4cc3ccc4O)C(O)c3ccc(c(Cl)c3)Oc3cc2cc(c3OC2OC(CO)C(O)C(O)C2OC2CC(C)(NCc3ccc(-c4ccc(Cl)cc4)cc3)C(O)C(C)O2)Oc2ccc(cc2Cl)C1O (stereo not shown) [Compound 339] |  |  |  |  |  |  | 
2 | 0.25 | 0.12 | 0.25 | 0.25 |  | CC(C)CC(N)C(=O)NC1C(=O)NC(CC(N)=O)C(=O)NC2C(=O)NC3C(=O)NC(C(=O)NC(C(=O)O)c4cc(O)cc(O)c4-c4cc3ccc4O)C(O)c3ccc(c(Cl)c3)Oc3cc2cc(c3OC2OC(CO)C(O)C(O)C2OC2CC(C)(NCc3ccc(-c4ccc(Cl)cc4)cc3)C(O)C(C)O2)Oc2ccc(cc2Cl)C1O (stereo not shown) [Compound 336] |  |  |  |  |  |  | 
3 | 0.39 | 0.12 | 0.25 | 0.78 |  | CNC(CC(C)C)C(=O)NC1C(=O)NC(CC(N)=O)C(=O)NC2C(=O)NC3C(=O)NC(C(=O)NC(C(=O)O)c4cc(O)cc(O)c4-c4cc3ccc4O)C(O)c3ccc(c(Cl)c3)Oc3cc2cc(c3OC2OC(CN)C(O)C(O)C2OC2CC(C)(NCc3ccc(-c4ccc(Cl)cc4)cc3)C(O)C(C)O2)Oc2ccc(cc2Cl)C1O (stereo not shown) [Compound 523] |  |  |  |  |  |  | 
4 | 0.25 | 0.12 | 0.25 | 0.25 |  | CC1OC(OC2C(Oc3c4cc5cc3Oc3ccc(cc3Cl)C(O)C3NC(=O)C(NC(=O)C5NC(=O)C(CC(N)=O)NC(=O)C(NC(=O)C(N)CCCNC(N)=O)C(O)c5ccc(c(Cl)c5)O4)c4ccc(O)c(c4)-c4c(O)cc(O)cc4C(C(=O)O)NC3=O)OC(CO)C(O)C2O)CC(C)(NCc2ccc(-c3ccc(Cl)cc3)cc2)C1O (stereo not shown) [Compound 62] |  |  |  |  |  |  | 
5 | 0.78 | 0.12 | 0.78 | 0.78 |  | CNC(CC(C)C)C(=O)NC1C(=O)NC(CC(N)=O)C(=O)NC2C(=O)NC3C(=O)NC(C(=O)NC(C(=O)O)c4cc(O)cc(O)c4-c4cc3ccc4O)C(O)c3ccc(c(Cl)c3)Oc3cc2cc(c3OC2OC(CI)C(O)C(O)C2OC2CC(C)(NCc3ccc(-c4ccc(Cl)cc4)cc3)C(O)C(C)O2)Oc2ccc(cc2Cl)C1O (stereo not shown) [Compound 520] |  |  |  |  |  |  | 
6 | 0.78 | 0.12 | 0.78 | 0.78 |  | CC1OC(OC2C(Oc3c4cc5cc3Oc3ccc(cc3Cl)C(O)C3NC(=O)C(NC(=O)C5NC(=O)C(CC(N)=O)NC(=O)C(NC(=O)C(N)COC(C)(C)C)C(O)c5ccc(c(Cl)c5)O4)c4ccc(O)c(c4)-c4c(O)cc(O)cc4C(C(=O)O)NC3=O)OC(CN)C(O)C2O)CC(C)(NCc2ccc(-c3ccc(Cl)cc3)cc2)C1O (stereo not shown) [Compound 521] |  |  |  |  |  |  | 
7 | 0.39 | 0.25 | 0.78 | 0.39 |  | CCC(C)C(N)C(=O)NC1C(=O)NC(CC(N)=O)C(=O)NC2C(=O)NC3C(=O)NC(C(=O)NC(C(=O)O)c4cc(O)cc(O)c4-c4cc3ccc4O)C(O)c3ccc(c(Cl)c3)Oc3cc2cc(c3OC2OC(CO)C(O)C(O)C2OC2CC(C)(NCc3ccc(-c4ccc(Cl)cc4)cc3)C(O)C(C)O2)Oc2ccc(cc2Cl)C1O (stereo not shown) [Compound 37] |  |  |  |  |  |  | 
8 | 0.78 | 0.39 |  | 0.78 | 25 | CC1OC(OC2C(Oc3c4cc5cc3Oc3ccc(cc3Cl)C(O)C3NC(=O)C(NC(=O)C5NC(=O)C(CC(N)=O)NC(=O)C(NC(=O)C(N)CCS(C)(=O)=O)C(O)c5ccc(c(Cl)c5)O4)c4ccc(O)c(c4)-c4c(O)cc(O)cc4C(C(=O)O)NC3=O)OC(CO)C(O)C2O)CC(C)(NCc2ccc(-c3ccc(Cl)cc3)cc2)C1O (stereo not shown) [Compound 82] |  | 2 |  |  |  |  | 
9 | 0.78 |  |  | 0.78 | 25 | C[C@H]1O[C@H](O[C@H]2[C@H](Oc3c4cc5cc3Oc3ccc(cc3Cl)[C@@H](O)[C@@H](NC(=O)CN3CCNCC3)C(=O)N[C@@H](CC(N)=O)C(=O)N[C@H]5C(=O)N[C@H]3C(=O)N[C@H](C(=O)N[C@@H](C(=O)O)c5cc(O)cc(O)c5-c5cc3ccc5O)[C@H](O)c3ccc(c(Cl)c3)O4)O[C@H](CO)[C@@H](O)[C@@H]2O)C[C@@](C)(NCc2ccc(-c3ccc(Cl)cc3)cc2)[C@H]1O [Compound 24] | 2 | 2 |  |  |  |  | 
10 | 0.25 | 0.12 | 0.25 | 0.25 |  | CC1OC(OC2C(Oc3c4cc5cc3Oc3ccc(cc3Cl)C(O)C3NC(=O)C(NC(=O)C5NC(=O)C(CC(N)=O)NC(=O)C(NC(=O)C5CNC(=O)N5)C(O)c5ccc(c(Cl)c5)O4)c4ccc(O)c(c4)-c4c(O)cc(O)cc4C(C(=O)O)NC3=O)OC(CO)C(O)C2O)CC(C)(NCc2ccc(-c3ccc(Cl)cc3)cc2)C1O (stereo not shown) [Compound 56-3] |  |  |  |  |  |  | 
11 |  | 0.78 |  |  | > 25 | CC(O)C(N)C(=O)NC1C(=O)NC(CC(N)=O)C(=O)NC2C(=O)NC3C(=O)NC(C(=O)NC(C(=O)O)c4cc(O)cc(O)c4-c4cc3ccc4O)C(O)c3ccc(c(Cl)c3)Oc3cc2cc(c3OC2OC(CO)C(O)C(O)C2OC2CC(C)(NCc3ccc(-c4ccc(Cl)cc4)cc3)C(O)C(C)O2)Oc2ccc(cc2Cl)C1O (stereo not shown) [Compound 89] | 2 | 2 | 2 |  |  |  | 
12 | 0.12 | 0.062 | 0.25 | 0.12 |  | CCCC(N)C(=O)NC1C(=O)NC(CC(N)=O)C(=O)NC2C(=O)NC3C(=O)NC(C(=O)NC(C(=O)O)c4cc(O)cc(O)c4-c4cc3ccc4O)C(O)c3ccc(c(Cl)c3)Oc3cc2cc(c3OC2OC(CO)C(O)C(O)C2OC2CC(C)(NCc3ccc(-c4ccc(Cl)cc4)cc3)C(O)C(C)O2)Oc2ccc(cc2Cl)C1O (stereo not shown) [Compound 337] |  |  |  |  |  |  | 
13 |  | 0.78 |  | 0.78 | 25 | CC1OC(OC2C(Oc3c4cc5cc3Oc3ccc(cc3Cl)C(O)C3NC(=O)C(NC(=O)C5NC(=O)C(CC(N)=O)NC(=O)C(NC(=O)CN5CCNCC5)C(O)c5ccc(c(Cl)c5)O4)c4ccc(O)c(c4)-c4c(O)cc(O)cc4C(C(=O)O)NC3=O)OC(CO)C(O)C2O)CC(C)(NCc2ccc(-c3ccc(Cl)cc3)cc2)C1O (stereo not shown) [Compound 34] |  | 2 |  |  |  |  | 
14 | 0.78 | 0.39 |  | 0.78 | 25 | C[C@H]1O[C@H](O[C@H]2[C@H](Oc3c4cc5cc3Oc3ccc(cc3Cl)[C@@H](O)[C@@H](NC(=O)c3cccc(N)c3)C(=O)N[C@@H](CC(N)=O)C(=O)N[C@H]5C(=O)N[C@H]3C(=O)N[C@H](C(=O)N[C@@H](C(=O)O)c5cc(O)cc(O)c5-c5cc3ccc5O)[C@H](O)c3ccc(c(Cl)c3)O4)O[C@H](CO)[C@@H](O)[C@@H]2O)C[C@@](C)(NCc2ccc(-c3ccc(Cl)cc3)cc2)[C@H]1O [Compound 257] |  |  |  | 2 | 2 | 2 | 
15 | 0.78 | 0.78 |  | 0.78 | 25 | CC1OC(OC2C(Oc3c4cc5cc3Oc3ccc(cc3Cl)C(O)C3NC(=O)C(NC(=O)C5NC(=O)C(CC(N)=O)NC(=O)C(NC(=O)C(N)CO)C(O)c5ccc(c(Cl)c5)O4)c4ccc(O)c(c4)-c4c(O)cc(O)cc4C(C(=O)O)NC3=O)OC(CO)C(O)C2O)CC(C)(NCc2ccc(-c3ccc(Cl)cc3)cc2)C1O (stereo not shown) [Compound 63] |  |  | 2 |  |  |  | 2

Row | SMILES | MIC S. aureus ATCC 33591 (S. Aureus ATCC 33591) [µg/mL] | MIC E. faecium ATCC 49624 (E. faecium ATCC 49624) [µg/mL] | MIC E. faecalis ATCC 29212 (E. faecalis ATCC 29212) [µg/mL] | MIC S. aureus ATCC 29213 (S aureus ATCC 29213) [µg/mL] | MIC E. faecium CL 4931 (E. faecium CL 4931) [µg/mL] | zone score, S. epidermidis ATCC 12228 [1, 2] | zone score, E. faecium ATCC 49624 (E. faceium (ATCC 49624)) | zone score, E. faecalis CL 4877 (E. faecalis (CL 4877); [2]) | zone score, S. aureus ATCC 29213 (S. aureus (ATCC 29213); [3]) | zone score, E. faecalis CL 4877 (E. faecalis (CL 4877); [3]) | zone score, S. epidermidis ATCC 12228 [1, 3] | zone score, S. aureus ATCC 29213 (S. aureus (ATCC 29213); [2])
16 | CC1OC(OC2C(Oc3c4cc5cc3Oc3ccc(cc3Cl)C(O)C3NC(=O)C(NC(=O)C5NC(=O)C(CC(N)=O)NC(=O)C(NC(=O)C(CCC(N)=O)NC(=O)OC(C)(C)C)C(O)c5ccc(c(Cl)c5)O4)c4ccc(O)c(c4)-c4c(O)cc(O)cc4C(C(=O)O)NC3=O)OC(CO)C(O)C2O)CC(C)(NCc2ccc(-c3ccc(Cl)cc3)cc2)C1O (stereo not shown) [Compound 136] | 0.78 | 0.78 |  | 0.78 | > 25 | 2 |  |  |  |  |  | 
17 | CC1OC(OC2C(Oc3c4cc5cc3Oc3ccc(cc3Cl)C(O)C3NC(=O)C(NC(=O)C5NC(=O)C(CC(N)=O)NC(=O)C(NC(=O)C(N)CCC(N)=O)C(O)c5ccc(c(Cl)c5)O4)c4ccc(O)c(c4)-c4c(O)cc(O)cc4C(C(=O)O)NC3=O)OC(CO)C(O)C2O)CC(C)(NCc2ccc(-c3ccc(Cl)cc3)cc2)C1O (stereo not shown) [Compound 91] | 0.78 | 0.78 |  | 0.78 | 25 | 2 |  |  |  |  |  | 
18 | CNC(CC(C)C)C(=O)NC1C(=O)NC(CC(N)=O)C(=O)NC2C(=O)NC3C(=O)NC(C(=O)NC(C(=O)O)c4cc(O)cc(O)c4-c4cc3ccc4O)C(O)c3ccc(c(Cl)c3)Oc3cc2cc(c3OC2OC(CO)C(O)C(O)C2OC2CC(C)(NCc3ccc(-c4ccc(Cl)cc4)cc3)C(O)C(C)O2)Oc2ccc(cc2Cl)C1O (stereo not shown) [Compound 517, Cl-Biphenyl Vancomycin, reference compound] | 0.25 | 0.062 | 0.25 | 0.25 |  |  |  |  |  |  |  | 
